From patent US12371454B2, “Cyclic peptide compound having Kras inhibitory action” (priority 2019, dated 2025) come the findings set out here.

The structures appear in SMILES notation. Starred links: 1 amine or outer side, 2 acyl side, 3 side chain; linkers in the order of their positions; H or OH if unused. Positions of bridges follow the written chain, without caps; N, C: chain ends. Non-standard residues stand in square brackets, D forms with d. Residues, ends and D or L forms follow the SMILES beside them. *: point of attachment. hPhe(3-Cl-4-CF3) = N[C@@H](CCc1ccc(C(F)(F)F)c(Cl)c1)C(=O)O; NMeDab(N,N-(CH2CF2CH2)) = CN[C@@H](CCN1CC(F)(F)C1)C(=O)O; hPhe(3-F,4-CF3) = N[C@@H](CCc1ccc(C(F)(F)F)c(F)c1)C(=O)O; hPhe(4-CF3) = N[C@@H](CCc1ccc(C(F)(F)F)cc1)C(=O)O; NMePhe(4-Cl) = CN[C@@H](Cc1ccc(Cl)cc1)C(=O)O; X4 = O=C([C@H](Cc1cc(F)cc(Cl)c1)N[*:1])[*:2]; NMeNle(6-CHF2) = CN[C@@H](CCCCC(F)F)C(=O)O; NMedβ3hAla = C[C@H](CC(=O)[*:2])N(C)[*:1]; hPhe(4-F) = N[C@@H](CCc1ccc(F)cc1)C(=O)O; NMe4Pal = CN[C@@H](Cc1ccncc1)C(=O)O; NMeCha = CN[C@@H](CC1CCCCC1)C(=O)O; NMeChg = CN[C@H](C(=O)O)C1CCCCC1; NMeF = CN[C@@H](Cc1ccccc1)C(=O)O; NMeD = CN[C@@H](CC(=O)O)C(=O)O; NMeL = CN[C@@H](CC(C)C)C(=O)O; NMeV = CN[C@H](C(=O)O)C(C)C; d(β3hA) = C[C@@H](N)CC(=O)O; Pip = O=C(O)[C@@H]1CCCCN1; NMeA = CN[C@@H](C)C(=O)O; NMeAib = CNC(C)(C)C(=O)O; Piperidide = C1CCN(*)CC1; Pyrrolidide = C1CCN(*)C1; Ac5c = NC1(C(=O)O)CCCC1; Aze = O=C(O)[C@@H]1CCN1; Aib = CC(C)(N)C(=O)O; Sar = CNCC(=O)O

This assay addresses T1, Kras and SOS1 (biotin-tagged human Kras loaded with GDP, His-tagged human SOS1) (Homo sapiens, UniProt P01116, G12D).
T1 construct: made in house; host or cells: E. coli (stated for Kras only)
Nature of the assay: Protein-protein interaction inhibition between Kras and SOS1 (KrasGl2D-SOS PPI) using AlphaScreen. The format is binding. The conditions noted are these: AlphaScreen; biotin-tagged human Kras loaded with GDP, His-tagged human SOS1; read-out: KRAS G12D-SOS PPI IC50. In outline: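 Kras was produced in E. coli, purified, then loaded with GDP. It was paired via streptavidin acceptor beads with His-SOS1 held on nickel donor beads, and proximity signal at 520-620 nm was read after 680 nm illumination.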

T1 sequence (P01116 1-188 isoform P01116-2 G12D): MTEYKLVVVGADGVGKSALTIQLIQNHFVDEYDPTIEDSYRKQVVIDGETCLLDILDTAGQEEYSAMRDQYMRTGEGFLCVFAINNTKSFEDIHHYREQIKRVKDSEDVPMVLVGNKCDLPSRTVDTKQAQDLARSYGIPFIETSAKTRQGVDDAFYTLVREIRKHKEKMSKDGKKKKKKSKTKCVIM

As to `CC[C@H](C)[C@@H]1NC(=O)[C@H](CC(C)C)N(C)C(=O)C[C@@H](C)NC(=O)[C@H](C(C)C)N(C)C(=O)C(C)(C)NC(=O)[C@@H]2CCCN2C(=O)[C@H](CCc2ccc(C(F)(F)F)c(Cl)c2)NC(=O)CN(C)C(=O)[C@H](CC2CCCCC2)N(C)C(=O)CN(C)C(=O)CN(C)C1=O` [Compound 641] (cyclo([Aib][NMeV][d(β3hA)][NMeL]I[Sar][Sar][NMeCha][Sar][hPhe(3-Cl-4-CF3)]P)), the IC50 came to 18 nM.
The figure for `CC[C@H](C)[C@@H]1NC(=O)[C@H](C(C)C)N(C)C(=O)C[C@@H](C)NC(=O)[C@H](CC(C)C)N(C)C(=O)C2(CCCC2)NC(=O)[C@H](CC(C)C)N(C)C(=O)[C@H](CCc2ccc(C(F)(F)F)cc2)NC(=O)CN(C)C(=O)[C@H](Cc2ccc(Cl)cc2)N(C)C(=O)[C@@H]2CCN2C(=O)CN(C)C1=O` [Compound 645] (cyclo([Ac5c][NMeL][d(β3hA)][NMeV]I[Sar][Aze][NMePhe(4-Cl)][Sar][hPhe(4-CF3)][NMeL])) is 58 nM.
To `CC[C@H](C)[C@@H]1NC(=O)[C@H](C)N(C)C(=O)C[C@@H](C(=O)N2CCCC2)NC(=O)[C@H](CC(C)C)N(C)C(=O)[C@H](Cc2ccccc2)N(C)C(=O)[C@H](CC(C)C)NC(=O)[C@H](CCc2ccc(F)cc2)NC(=O)CN(C)C(=O)[C@H](Cc2ccc(Cl)cc2)N(C)C(=O)CN(C)C(=O)CN(C)C1=O` [Compound 646] ([NMeA]I[Sar][Sar][NMePhe(4-Cl)][Sar][hPhe(4-F)]L[NMeF][NMeL]D-Pyrrolidide; lactam N-11) belongs 120 nM; to `CC[C@H](C)[C@@H]1NC(=O)[C@@H]2CCCCN2C(=O)C[C@@H](C)N(C)C(=O)[C@H](CC(C)C)NC(=O)C(C)(C)N(C)C(=O)[C@H](CC(C)C)NC(=O)[C@H](CCc2ccc(C(F)(F)F)c(F)c2)NC(=O)CN(C)C(=O)[C@H](CC2CCCCC2)N(C)C(=O)CN(C)C(=O)CN(C)C1=O` [Compound 649] (cyclo(I[Sar][Sar][NMeCha][Sar][hPhe(3-F,4-CF3)]L[NMeAib]L[NMedβ3hAla][Pip])), 360 nM.
The figure for `CC[C@H](C)[C@@H]1NC(=O)[C@H](CC(C)C)N(C)C(=O)C[C@@H](C(=O)N2CCCCC2)N(C)C(=O)[C@H](CCCCC(F)F)N(C)C(=O)C2(CCCC2)NC(=O)[C@@H]2CCCN2C(=O)[C@H](CCc2ccc(C(F)(F)F)c(Cl)c2)NC(=O)CN(C)C(=O)[C@H](CC2CCCCC2)N(C)C(=O)CN(C)C(=O)CN(C)C1=O` [Compound 653] ([NMeL]I[Sar][Sar][NMeCha][Sar][hPhe(3-Cl-4-CF3)]P[Ac5c][NMeNle(6-CHF2)][NMeD]-Piperidide; lactam N-11) is 44 nM; for `CC[C@H](C)[C@@H]1NC(=O)[C@H](C)N(C)C(=O)C[C@@H](C)NC(=O)[C@H](CC(C)C)N(C)C(=O)[C@H](Cc2ccccc2)N(C)C(=O)[C@@H]2CCN2C(=O)[C@H](CCc2ccc(C(F)(F)F)cc2)NC(=O)CN(C)C(=O)[C@H](Cc2ccc(Cl)cc2)N(C)C(=O)CN(C)C(=O)CN(C)C1=O` [Compound 654] (cyclo([Aze][NMeF][NMeL][d(β3hA)][NMeA]I[Sar][Sar][NMePhe(4-Cl)][Sar][hPhe(4-CF3)])) it is 110 nM.
Take `CC[C@H](C)[C@@H]1NC(=O)[C@H](C)N(C)C(=O)C[C@@H](C(=O)N2CCCCC2)N(C)C(=O)[C@H](C(C)C)N(C)C(=O)[C@H](COC)NC(=O)[C@H](CCN2CC(F)(F)C2)N(C)C(=O)[C@H](CCc2ccc(C(F)(F)F)c(Cl)c2)NC(=O)CN(C)C(=O)[C@H](CC2CCCCC2)N(C)C(=O)CN(C)C(=O)CN(C)C1=O` [Compound 655] ([NMeA]I[Sar][Sar][NMeCha][Sar][hPhe(3-Cl-4-CF3)][NMeDab(N,N-(CH2CF2CH2))]S(Me)[NMeV][NMeD]-Piperidide; lactam N-11): the IC50 came out at 4.9 nM.
To `CC[C@H](C)[C@@H]1NC(=O)[C@H](CC(C)C)N(C)C(=O)C[C@@H](C(=O)N2CCCCC2)N(C)C(=O)[C@H](C2CCCCC2)N(C)C(=O)C2(CCCC2)NC(=O)[C@H](Cc2ccncc2)N(C)C(=O)[C@H](CCc2ccc(C(F)(F)F)c(Cl)c2)NC(=O)CN(C)C(=O)[C@H](CC2CCCCC2)N(C)C(=O)[C@@H]2CCN2C(=O)[C@H](C)N(C)C1=O` [Compound 656] ([NMeL]I[NMeA][Aze][NMeCha][Sar][hPhe(3-Cl-4-CF3)][NMe4Pal][Ac5c][NMeChg][NMeD]-Piperidide; lactam N-11) belongs 17 nM; to `CC[C@H](C)[C@@H]1NC(=O)[C@H](C)N(C)C(=O)C[C@@H](C(=O)N2CCCC2)NC(=O)[C@H](CC(C)C)N(C)C(=O)[C@H](Cc2ccccc2)N(C)C(=O)[C@H](CC(C)C)NC(=O)[C@H](Cc2cc(F)cc(Cl)c2)NC(=O)CN(C)C(=O)[C@H](Cc2ccc(Cl)cc2)N(C)C(=O)CN(C)C(=O)CN(C)C1=O` [Compound 657] ([NMeA]I[Sar][Sar][NMePhe(4-Cl)][Sar][X4]L[NMeF][NMeL]D-Pyrrolidide; lactam N-11), 310 nM.
